Measurements: patent US7951789B2 (priority 2006, dated 2011)
Read-outs that look alike come from different tables or passages of the source.

How the values were obtained:
[1] = tested on: endogenous HBV polymerase activity; assay: HBV drug susceptibility assay (EPA read-out); assay type: cell-based; conditions: for SI: CC50/EC50, HBV Cell Assay (EPA Read-out); for EC50: HBV Cell Assay (EPA Read-out), collagen plates, read-out: Antiviral Activity (EC50 in μM)
Experimental: • a) Collagen-I coated cell culture plates were seeded with cells at a density of 0.25-0.5×10^6 cells per well in 2 ml of growth/selection media. • b) Drug stock solutions were made up freshly in 100% DMSO as 200× stocks. Seven 4-fold dilutions of test compound were prepared ranging from 2.5 μM to 0.0006 μM (final). Master drug dilutions were divided into 4 aliquots, and then stored at −20° C. until used. • c) One day after cells were seeded, drug treatments were initiated by adding 10 μl of drug dilution along with 2 ml of fresh growth/selection media. […] The no-drug control wells received 10 μl of DMSO in fresh media. • d) Cells were treated every-other-day with 2 ml of fresh drug combinations/medium for a total of 8 days. Cell lysates were then collected on day 10 as described below and endogenous polymerase assay were performed. Preparation of Nucleocapsid-Containing Lysates for Epa Analysis • a) Two days after the final drug treatment, cells were harvested. • b) Media was carefully aspirated and the cell monolayers were rinsed once with 1 ml of PBS. • c) 1 ml of lysis buffer (50 mM Tris-HCl pH 7.5/150 mM NaCl/5 mM MgCl2/0.2% NP-40) was added to each well. The detergent is required to strip the outer envelope from virions and to allow capture of the inner nucleocapsids. Plates were kept on ice for >30 min. • d) Lysed cells were transferred to 1.5 ml-microfuge tubes. • e) Lysates were clarified by spinning at room temperature for 5 min at 14,000 rpm. • f) Clarified lysates were transferred to fresh tubes and immediately frozen on dry-ice, then stored at −80° C. until endogenous polymerase assays can be performed as described below. Endogenous Polymerase Assay (EPA) of Cell Lysates • a) EPAs were performed essentially as described in Seifer, et al (1998). J. Virol. 72: 2765-2776. […] The detergent is required to enhance permeability of the nucleocapsids. • d) Following digestion with 1 mg/ml of Proteinase K for 1 hour at 37° C., endogenously ^33P-labeled HBV DNA was liberated via phenol/chloroform extraction. • e) The nucleic acids were then precipitated with one volume of 5 M NH4-acetate and 2.5 volumes 100% EtOH, and separated on a 1% native agarose gel in Tris-borate buffer. • f) Gels were blotted onto positively charged nylon membrane overnight at room temperature via capillary transfer in 0.4 N NaOH. • g) Dried membranes were exposed to a phosphoimager screen (GE Healthcare) overnight at room temperature, then scanned (Storm 860, GE Healthcare) and quantitated with ImageQuant software (GE Healthcare). • h) Dose-response curves were generated using XLfit 4.1 software. The mean effective drug concentrations that inhibit endogenous HBV polymerase activity by 50% were calculated from several independent experiments. Cytotoxicity Determination

[2] = tested on: HBV wt (HepG2); assay: Anti-HBV activity in HBV-infected HepG2 cells; assay type: cell-based; conditions: N=3
Experimental: The compound of Example 1 (NM 204) (Hydroxy-tBuSATE N-benzylphosphoramidate derivative of L-ddA) (A550) was contacted with HBV-infected HepG2 cells. EC50 values were measured according to standard techniques.

[3] = tested on: HepG2 cells; assay: In vitro cytotoxicity assay in HepG2 cells (MTS); assay type: cell-based; conditions: 9 days, collagen plates
Experimental: (§1) A standard in vitro cytotoxicity assay was performed in HepG2 cells. Cells were exposed to drug for 9 days. Cell viability was determined via MTS staining using a CellTiter 96 Aqueous One Solution cell proliferation assay according to the manufacturer's instructions. • a) HepG2 cells were seeded in 96-well tissue culture plates in 100 μl fresh growth media at 7×10^3 cells per well. • b) Drug stock solutions were made up in 100% DMSO as 400× stock solutions and stored at −20° C. until used. • c) Four hours after cells were plated the drug dilutions were prepared and then added to the cells. Cells received up to 100 μM of drug in a total of 200 μl of fresh growth media containing 0.25% DMSO. Control wells received growth media with 0.25% DMSO growth media. Plates were incubated at 37° C., 5% CO2. • d) Cells were treated every-other-day with fresh growth media and fresh drug dilutions for a total of 8 days as described above. • e) On day 9, cell viability of HepG2 cells was determined by adding 20 μl of MTS CellTiter 96 Aqueous One Solution.

[4] = tested on: HCV Conl subgenomic replicon (GS4.1 cells); assay: HCV replicon assay (NS4A ELISA, HCV ELISA 2); assay type: cell-based; conditions: Hepatitis C virus; GS4.1 cells, 72 hours, NS4A ELISA; read-out: HCV ELISA 2 EC50
Summary of the method: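 Huh-7 GS4.1 replicon cells treated 72 h at 37° C. with ten 2-fold dilutions from 75 μM (or single 15 μM), 0.5% DMSO; NS4A measured by ELISA, absorbance 492 nm, replicon-free Huh-7 as negative control. EC50 by four-parameter sigmoidal fit. CC50 from same treatment by MTS-type Cell Titer 96 viability.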

[5] = Cytotoxicity evaluation in GS4.1 cells (Cell Titer 96 AQueous One Solution); assay type: cell-based; conditions: human, 72 hours
[6] = tested on: wild-type HBV (intracellular nucleocapsids); assay: Anti-HBV activity in HBV nucleocapsids (RI) via endogenous polymerase assay (EPA); assay type: cell-based; conditions: Hepatitis B virus; wild-type HBV producer cell line, intracellular nucleocapsids, EPA; read-out: RI EC50
Experimental: Compounds were tested in an anti-HBV assay. Determination of anti-HBV activity in HBV virions and nucleocapsids via endoenous polymerase assays (EPA)
• 1. 12-well collagen-I coated plates were seeded with producer cells expressing wild-type HBV at a density of 0.5-1×10^6 cells per well in 2 ml growth/selection media. • 2. Drug stock solutions were made up freshly in 100% DMSO as 200× stocks. Five additional 4-fold dilutions were prepared from these 200× stock in 100% DMSO. For each experiment, 4 aliquots of each drug dilution series were stored at −20° C. until used. • 3. Once cells reached confluency (1 day after cells were seeded), drug treatment was initiated by adding 10 μl of drug dilution into 2 ml of fresh growth/selection media. […] The no-drug control wells received only 10 μl of DMSO in fresh media. • 4. Cells were treated every-other-day with 2 ml of fresh drug/medium for a total of 8 days. Cell lysates were then collected on day 10 and subjected to EPA analysis as described below. Preparation of Nucleocapsid-Containing Lysates for Epa Analysis • 1. Cells were grown for 3 to 4 days in 12-well collagen-I coated plates until confluent. • 2. Media was carefully aspirated and the cell monolayers were rinsed once with 1 ml of PBS. • 3. One ml of lysis buffer (50 mM Tris-HCl pH 7.5/150 mM NaCl/5 mM MgCl2/0.2% NP-40) was added to each well. Plates were stored on ice for 30 min to 4 h. • 4. Lysed cells were transferred to 1.5 ml-microfuge tubes. • 5. Lysates were clarified by spinning at 14,000 rpm for 5 min at room temperature. • 6. Clarified lysates were transferred to fresh tubes and immediately frozen on dry-ice, then stored at −80° C. until endogenous polymerase assays were performed as described below. Preparation of Secreted Virions from Supernatant for Epa Analysis • 1. Cells were grown for 3 to 4 days in 12-well collagen-I coated plates until confluent. • 2. Media was carefully aspirated and transferred to 1.5 ml-microfuge tubes. • 3. Supernatants were clarified by spinning at 14,000 rpm for 5 min at room temperature. • 4. Clarified supernatants were transferred to fresh tubes and immediately frozen on dry-ice, then stored at −80° C. until endogenous polymerase assays were performed essentially as described below. Endogenous Polymerase Assay (EPA) of Cell Lysates and Supernatants • 1. EPAs were performed essentially as described by Seifer et al (1998). Intracellular HBV nucleocapsids were immunoprecipitated from the cytoplasmic lysates overnight at 4° C. with a polyclonal rabbit anti-HBcAg antibody and immobilized on protein A sepharose CL-4B beads. Secreted virions were immunoprecipitated from clarified cell supernatants overnight at 4° C. with a monoclonal mouse anti-LS antibody (MA18/7) in the absence of detergent. • 2. Following 3 washes of the immobilized capsids or virions with 1 ml of EPA wash buffer (75 mM NH4Cl, 50 mM Tris-HCl pH 7.4, 1 mM EDTA), endogenous polymerase reactions were initiated by adding 50 μl of detergent-containing EPA cocktail (50 mM Tris-HCl pH7.4, 75 mM NH4Cl, 1 mM EDTA, 20 mM MgCl2, 0.1 mM β-ME, 0.5% NP-40, 100 μM cold dGTP, TTP, dCTP, and 50 nM ^33P-dATP) and incubated overnight at 37° C. The detergent is required to strip the outer envelope from immunoprecipitated virions as well as to enhance permeability of the nucleocapsids. • 3. Following digestion with 1 mg/ml of proteinase K for 1 h at 37° C., endogenously ^33P-labeled HBV DNA was liberated via phenol/chloroform extraction. • 4. The nucleic acids were precipitated with 1 volume of 5M NH4-acetate and 2.5 volumes of 100% EtOH, and then separated on a 1% native agarose gel in Tris-borate-EDTA buffer. • 5. Gels were blotted onto positively charged nylon membrane overnight at room temperature via capillary transfer in 0.4 N NaOH. • 6. Dried membranes were exposed to a Phosphorlmager screen (GE Healthcare) overnight at room temperature, then scanned (Storm 860, GE Healthcare) and quantitated with ImageQuant software (GE Healthcare). • 7. […]

[7] = In vitro cytotoxicity assay in HepG2 cells (MTS); assay type: cell-based; conditions: human, collagen plates
Experimental: as §1

For Cc1cn([C@@H]2C[C@@H](O)[C@H](CO)O2)c(=O)[nH]c1=O [LdT], the SI [1] was over 273, the EC50 [1] was 0.366 ± 0.056 µM and the EC50 [2] was 0.26 ± 0.048 µM. The CC50 [3] was over 100 µM.

Compound CC(C)(CO)C(=O)SCCOP(=O)(NCc1ccccc1)OC[C@H]1O[C@@H](n2ccc(N)nc2=O)[C@]2(C)OC(=O)O[C@H]12 (some centres unmarked) [Example B302, Hydroxy-tBuSATE N-benzylphosphoramidate 2′,3′-cyclic carbonate Derivative of 2′-C-methylcytidine] has an EC50 [4] of 1 to 10 µM, a melting point of 100 to 102 °C and a CC50 [5] of over 75 µM.

In the case of CC(C)(CO)C(=O)SCCOP(=O)(COCCn1cnc2c(N)ncnc21)NCc1ccccc1 (centres unmarked) [Example B261, Hydroxy-tBuSATE N-benzylphosphonamidate Derivative of PMEA], the EC50 [6] is reported as under 1 µM, the SI [1] is reported as 1,225 and the EC50 ([1]; Hepatitis B virus) is reported as 0.016 ± 0.004 µM. The CC50 at 9 days [7] was 19.6 µM.
